Source: ChEMBL document CHEMBL2062454, “SAR studies around a series of triazolopyridines as potent and selective PI3Kγ inhibitors” (Bioorg Med Chem Lett, 2012)
Values after ≈ are worked out from the molar mass of the structure shown.

Columns and labels:
[1] = species on record: Homo sapiens; assay: Selectivity ratio of IC50 for PI3Kdelta to IC50 for PI3Kgamma
[2] = target: Phosphatidylinositol 4,5-bisphosphate 3-kinase catalytic subunit alpha isoform (Homo sapiens, UniProt P42336); assay: Inhibition of PI3Kalpha by high throughput chemoproteomics binding assay
Phosphatidylinositol 4,5-bisphosphate 3-kinase catalytic subunit alpha isoform, sequence (P42336 whole entry, canonical isoform): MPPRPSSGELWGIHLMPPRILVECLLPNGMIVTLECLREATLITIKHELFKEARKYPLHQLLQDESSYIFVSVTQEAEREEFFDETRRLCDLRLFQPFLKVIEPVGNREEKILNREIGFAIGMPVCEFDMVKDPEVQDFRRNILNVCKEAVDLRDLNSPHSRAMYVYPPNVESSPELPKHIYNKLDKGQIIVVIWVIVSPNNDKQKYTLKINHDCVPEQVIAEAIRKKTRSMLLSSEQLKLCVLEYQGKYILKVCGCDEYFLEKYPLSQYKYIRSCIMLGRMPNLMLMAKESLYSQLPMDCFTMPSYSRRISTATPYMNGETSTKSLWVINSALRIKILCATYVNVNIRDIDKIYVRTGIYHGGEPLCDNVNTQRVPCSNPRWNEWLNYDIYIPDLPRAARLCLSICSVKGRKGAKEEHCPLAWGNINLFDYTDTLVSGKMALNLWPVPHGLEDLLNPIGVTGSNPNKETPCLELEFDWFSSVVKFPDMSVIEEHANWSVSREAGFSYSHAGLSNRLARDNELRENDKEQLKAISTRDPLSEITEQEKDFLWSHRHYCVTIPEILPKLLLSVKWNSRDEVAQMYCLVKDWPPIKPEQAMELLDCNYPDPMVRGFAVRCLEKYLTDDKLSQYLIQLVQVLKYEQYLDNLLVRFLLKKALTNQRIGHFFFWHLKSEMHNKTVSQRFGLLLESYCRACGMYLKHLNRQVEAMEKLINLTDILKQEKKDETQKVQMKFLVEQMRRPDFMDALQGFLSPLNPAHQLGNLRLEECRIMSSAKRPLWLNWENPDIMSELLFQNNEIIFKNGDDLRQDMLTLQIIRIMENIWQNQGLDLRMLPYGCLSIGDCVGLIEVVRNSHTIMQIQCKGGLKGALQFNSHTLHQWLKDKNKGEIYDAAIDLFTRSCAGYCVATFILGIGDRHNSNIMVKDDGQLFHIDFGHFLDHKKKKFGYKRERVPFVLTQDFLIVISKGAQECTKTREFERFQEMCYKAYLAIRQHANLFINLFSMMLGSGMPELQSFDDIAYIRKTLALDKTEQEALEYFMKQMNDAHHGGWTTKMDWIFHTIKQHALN

[3] = species on record: Homo sapiens; assay: Selectivity ratio of IC50 for PI3Kbeta to IC50 for PI3Kgamma
[4] = target: T1, Phosphatidylinositol 4,5-bisphosphate 3-kinase catalytic subunit delta isoform (Homo sapiens, UniProt O00329); assay: Inhibition of PI3Kdelta by high throughput chemoproteomics binding assay
T1 sequence (O00329 whole entry): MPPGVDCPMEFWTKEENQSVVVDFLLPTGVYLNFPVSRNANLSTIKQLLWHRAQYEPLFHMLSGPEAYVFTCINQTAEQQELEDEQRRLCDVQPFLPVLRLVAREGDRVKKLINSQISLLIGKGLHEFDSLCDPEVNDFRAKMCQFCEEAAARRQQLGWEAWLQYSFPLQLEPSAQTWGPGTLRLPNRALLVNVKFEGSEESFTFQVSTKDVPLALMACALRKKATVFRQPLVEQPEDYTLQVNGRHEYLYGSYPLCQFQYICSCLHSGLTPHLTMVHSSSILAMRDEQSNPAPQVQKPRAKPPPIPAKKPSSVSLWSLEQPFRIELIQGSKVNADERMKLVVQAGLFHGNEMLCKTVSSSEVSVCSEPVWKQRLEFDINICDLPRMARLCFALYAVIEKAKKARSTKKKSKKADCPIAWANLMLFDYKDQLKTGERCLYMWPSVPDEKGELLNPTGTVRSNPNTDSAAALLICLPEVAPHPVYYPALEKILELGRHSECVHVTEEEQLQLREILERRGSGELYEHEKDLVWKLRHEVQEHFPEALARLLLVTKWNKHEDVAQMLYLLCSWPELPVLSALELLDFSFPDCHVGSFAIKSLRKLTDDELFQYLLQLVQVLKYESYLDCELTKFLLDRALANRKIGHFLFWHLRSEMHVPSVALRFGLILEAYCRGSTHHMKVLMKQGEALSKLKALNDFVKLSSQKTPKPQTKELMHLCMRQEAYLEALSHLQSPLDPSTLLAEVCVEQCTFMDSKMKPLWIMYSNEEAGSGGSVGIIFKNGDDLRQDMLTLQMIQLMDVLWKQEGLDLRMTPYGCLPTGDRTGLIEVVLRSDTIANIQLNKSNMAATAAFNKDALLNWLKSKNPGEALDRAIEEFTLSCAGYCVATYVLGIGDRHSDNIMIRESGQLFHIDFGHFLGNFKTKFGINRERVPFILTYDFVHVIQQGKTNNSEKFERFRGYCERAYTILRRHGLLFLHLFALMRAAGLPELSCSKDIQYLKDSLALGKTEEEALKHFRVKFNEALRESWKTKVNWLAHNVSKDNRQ

[5] = species on record: Homo sapiens; assay: Selectivity ratio of IC50 for PI3Kalpha to IC50 for PI3Kgamma
[6] = target: Phosphatidylinositol 4,5-bisphosphate 3-kinase catalytic subunit beta isoform (Homo sapiens, UniProt P42338); assay: Inhibition of PI3Kbeta by high throughput chemoproteomics binding assay
Phosphatidylinositol 4,5-bisphosphate 3-kinase catalytic subunit beta isoform, sequence (P42338 whole entry, canonical isoform): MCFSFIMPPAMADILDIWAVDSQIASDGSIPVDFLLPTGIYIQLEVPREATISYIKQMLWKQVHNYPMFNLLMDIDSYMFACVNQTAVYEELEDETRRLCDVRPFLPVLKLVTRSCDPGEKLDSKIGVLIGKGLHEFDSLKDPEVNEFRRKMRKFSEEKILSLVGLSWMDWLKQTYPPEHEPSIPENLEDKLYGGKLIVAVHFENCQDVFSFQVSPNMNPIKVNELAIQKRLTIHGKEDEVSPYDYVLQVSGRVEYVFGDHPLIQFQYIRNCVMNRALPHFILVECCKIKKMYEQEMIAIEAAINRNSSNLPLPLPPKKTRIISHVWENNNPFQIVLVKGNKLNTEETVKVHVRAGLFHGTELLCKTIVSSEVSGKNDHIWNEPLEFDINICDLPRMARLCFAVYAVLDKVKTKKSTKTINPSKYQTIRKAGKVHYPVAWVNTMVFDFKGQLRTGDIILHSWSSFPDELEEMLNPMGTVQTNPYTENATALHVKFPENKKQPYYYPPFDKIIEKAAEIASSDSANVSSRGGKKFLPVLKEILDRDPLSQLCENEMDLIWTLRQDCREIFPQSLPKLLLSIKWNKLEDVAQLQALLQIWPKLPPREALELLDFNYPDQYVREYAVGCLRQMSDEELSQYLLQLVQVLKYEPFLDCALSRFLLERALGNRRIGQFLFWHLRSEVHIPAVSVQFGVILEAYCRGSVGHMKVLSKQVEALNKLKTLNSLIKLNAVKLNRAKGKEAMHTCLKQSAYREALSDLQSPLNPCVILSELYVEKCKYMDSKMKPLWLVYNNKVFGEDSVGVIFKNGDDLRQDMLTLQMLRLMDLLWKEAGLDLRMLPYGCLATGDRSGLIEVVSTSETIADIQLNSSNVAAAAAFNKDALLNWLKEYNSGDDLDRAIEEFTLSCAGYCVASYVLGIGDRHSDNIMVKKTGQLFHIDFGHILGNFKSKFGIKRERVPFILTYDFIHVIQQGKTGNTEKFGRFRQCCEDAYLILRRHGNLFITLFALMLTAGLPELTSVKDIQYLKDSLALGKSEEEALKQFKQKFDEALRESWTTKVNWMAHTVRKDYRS

[7] = target: T2, Phosphatidylinositol 4,5-bisphosphate 3-kinase catalytic subunit gamma isoform (Homo sapiens, UniProt P48736); assay: Inhibition of PI3Kgamma by high throughput chemoproteomics binding assay
T2 sequence (P48736 whole entry, canonical isoform): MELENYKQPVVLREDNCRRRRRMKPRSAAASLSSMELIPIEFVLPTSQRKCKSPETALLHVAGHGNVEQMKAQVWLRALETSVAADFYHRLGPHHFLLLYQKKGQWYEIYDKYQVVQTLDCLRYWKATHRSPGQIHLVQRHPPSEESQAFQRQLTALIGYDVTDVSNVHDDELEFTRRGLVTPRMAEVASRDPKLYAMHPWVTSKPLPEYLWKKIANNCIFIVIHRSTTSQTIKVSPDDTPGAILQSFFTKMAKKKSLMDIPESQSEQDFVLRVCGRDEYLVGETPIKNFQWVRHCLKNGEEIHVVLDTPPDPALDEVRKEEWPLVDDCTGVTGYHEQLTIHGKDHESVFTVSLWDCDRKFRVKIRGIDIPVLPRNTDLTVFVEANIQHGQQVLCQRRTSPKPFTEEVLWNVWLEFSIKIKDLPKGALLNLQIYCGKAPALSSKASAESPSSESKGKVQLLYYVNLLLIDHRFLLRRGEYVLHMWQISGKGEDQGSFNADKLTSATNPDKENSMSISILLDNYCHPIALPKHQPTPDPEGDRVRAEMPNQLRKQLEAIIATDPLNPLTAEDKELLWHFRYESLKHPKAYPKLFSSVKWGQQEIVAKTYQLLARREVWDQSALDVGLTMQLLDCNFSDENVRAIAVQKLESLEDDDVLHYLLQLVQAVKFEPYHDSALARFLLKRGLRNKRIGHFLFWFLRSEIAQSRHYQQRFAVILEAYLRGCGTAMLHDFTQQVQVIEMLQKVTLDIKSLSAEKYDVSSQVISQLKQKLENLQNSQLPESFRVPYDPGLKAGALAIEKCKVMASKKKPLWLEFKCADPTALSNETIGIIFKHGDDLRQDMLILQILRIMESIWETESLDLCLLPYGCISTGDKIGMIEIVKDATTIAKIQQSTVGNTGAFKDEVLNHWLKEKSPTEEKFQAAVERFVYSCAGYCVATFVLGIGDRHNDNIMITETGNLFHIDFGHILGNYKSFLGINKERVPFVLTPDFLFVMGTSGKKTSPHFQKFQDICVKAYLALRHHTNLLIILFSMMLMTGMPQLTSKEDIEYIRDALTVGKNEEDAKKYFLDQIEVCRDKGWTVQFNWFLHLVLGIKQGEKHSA

[8] = Protein binding in plasma; assay type: ADME, cell-free; details: read-out: PPB
[9] = target: T2, Phosphatidylinositol 4,5-bisphosphate 3-kinase catalytic subunit gamma isoform; assay: Inhibition of PI3Kgamma assessed as inhibition of C5a-induced AKT phosphorylation at Ser473 by cell based assay
[10] = system: Caco-2; assay: Permeability of the compound in human Caco2 cells; assay type: ADME, cell-based
[11] = target: Cytochrome P450 3A4 (Homo sapiens, UniProt P08684); assay: Inhibition of CYP3A4 up to 25 uM; assay type: ADME
[12] = target: Voltage-gated inwardly rectifying potassium channel KCNH2 (Homo sapiens, UniProt Q12809); assay: Inhibition of human ERG up to 100 uM by Q-patch assay
Voltage-gated inwardly rectifying potassium channel KCNH2, sequence (Q12809 whole entry): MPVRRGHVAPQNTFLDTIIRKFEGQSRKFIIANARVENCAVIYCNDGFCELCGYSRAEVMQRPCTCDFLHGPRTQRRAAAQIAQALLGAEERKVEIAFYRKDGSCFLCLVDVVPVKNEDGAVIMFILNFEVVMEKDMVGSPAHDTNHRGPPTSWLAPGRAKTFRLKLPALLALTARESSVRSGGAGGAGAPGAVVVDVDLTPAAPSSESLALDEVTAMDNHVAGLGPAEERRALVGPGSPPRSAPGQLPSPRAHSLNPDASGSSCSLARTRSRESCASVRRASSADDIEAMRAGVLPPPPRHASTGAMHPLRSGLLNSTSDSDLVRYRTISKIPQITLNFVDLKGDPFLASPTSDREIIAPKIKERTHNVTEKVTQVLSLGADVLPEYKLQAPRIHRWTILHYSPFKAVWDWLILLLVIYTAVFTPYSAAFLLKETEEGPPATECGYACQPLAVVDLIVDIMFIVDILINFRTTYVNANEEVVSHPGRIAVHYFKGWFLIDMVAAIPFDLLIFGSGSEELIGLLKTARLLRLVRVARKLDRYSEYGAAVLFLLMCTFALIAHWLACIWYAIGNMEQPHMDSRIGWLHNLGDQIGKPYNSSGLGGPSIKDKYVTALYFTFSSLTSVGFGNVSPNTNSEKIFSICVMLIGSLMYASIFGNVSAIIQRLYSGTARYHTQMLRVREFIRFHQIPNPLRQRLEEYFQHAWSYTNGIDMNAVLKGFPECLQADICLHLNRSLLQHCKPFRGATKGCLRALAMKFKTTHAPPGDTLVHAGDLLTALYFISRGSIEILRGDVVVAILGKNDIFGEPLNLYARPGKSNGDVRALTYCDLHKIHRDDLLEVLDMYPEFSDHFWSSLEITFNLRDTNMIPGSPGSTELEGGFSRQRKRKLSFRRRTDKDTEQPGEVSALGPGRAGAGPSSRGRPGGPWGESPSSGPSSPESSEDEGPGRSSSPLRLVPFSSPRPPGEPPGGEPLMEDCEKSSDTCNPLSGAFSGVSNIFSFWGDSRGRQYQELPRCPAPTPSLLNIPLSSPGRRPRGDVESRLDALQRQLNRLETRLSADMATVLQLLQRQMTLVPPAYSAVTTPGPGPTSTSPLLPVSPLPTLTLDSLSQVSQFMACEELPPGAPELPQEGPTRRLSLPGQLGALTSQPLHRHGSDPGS

[13] = target: Cytochrome P450 2C9 (Homo sapiens, UniProt P11712); assay: Inhibition of CYP2C9 up to 25 uM; assay type: ADME
Cytochrome P450 2C9, sequence (P11712 whole entry): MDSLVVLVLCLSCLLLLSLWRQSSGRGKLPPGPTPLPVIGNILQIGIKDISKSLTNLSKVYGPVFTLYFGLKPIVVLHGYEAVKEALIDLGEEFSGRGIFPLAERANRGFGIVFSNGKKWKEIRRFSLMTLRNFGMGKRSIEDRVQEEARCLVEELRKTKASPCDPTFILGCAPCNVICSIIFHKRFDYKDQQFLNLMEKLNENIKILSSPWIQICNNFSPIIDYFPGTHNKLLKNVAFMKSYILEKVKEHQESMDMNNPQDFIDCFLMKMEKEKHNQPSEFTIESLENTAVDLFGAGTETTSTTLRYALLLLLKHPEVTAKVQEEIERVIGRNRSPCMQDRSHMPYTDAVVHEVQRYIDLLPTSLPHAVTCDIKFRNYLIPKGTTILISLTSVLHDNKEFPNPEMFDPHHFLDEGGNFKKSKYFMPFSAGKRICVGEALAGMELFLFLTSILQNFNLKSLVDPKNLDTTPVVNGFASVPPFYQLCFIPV

[14] = Half life in rat microsomes; assay type: ADME, Microsome
[15] = Clearance in rat at 1 mg/kg, iv and 5 mg/kg, po; assay type: ADME, organism-based; details: in vivo
[16] = system: Salmonella typhimurium; assay: Mutagenic activity in Salmonella typhimurium TA1537 at 1667 ug/plate in absence of liver S9 fraction; assay type: toxicity, organism-based; details: salmonella enterica subsp. enterica serovar typhimurium
[17] = system: Salmonella typhimurium; assay: Mutagenic activity in Salmonella typhimurium TA98 at 1667 ug/plate in absence of liver S9 fraction; assay type: toxicity, organism-based; details: salmonella enterica subsp. enterica serovar typhimurium
[18] = system: Salmonella typhimurium; assay: Mutagenic activity in Salmonella typhimurium TA1537 at 1667 ug/plate in presence of liver S9 fraction; assay type: toxicity, organism-based; details: salmonella enterica subsp. enterica serovar typhimurium
[19] = Half life in human microsomes; assay type: ADME, Microsome
[20] = system: Salmonella typhimurium; assay: Mutagenic activity in Salmonella typhimurium TA100 at 1667 ug/plate in absence of liver S9 fraction; assay type: toxicity, organism-based; details: salmonella enterica subsp. enterica serovar typhimurium
[21] = target: Cytochrome P450 2C19 (Homo sapiens, UniProt P33261); assay: Inhibition of CYP2C19 up to 25 uM; assay type: ADME
[22] = system: Mus musculus; assay: Antiarthritic activity in DBA/B10 mouse collagen-induced arthritis model assessed as reduction of clinical score at 10 mg/kg, po administered twice per day for every 12 hrs; assay type: functional; parameters: scale not given: the % may be the effect or the level left
[23] = target: T3, Cytochrome P450 1A (Homo sapiens, UniProt P04798+P05177); assay: Inhibition of CYP1A up to 25 uM; assay type: ADME
T3 sequence (P04798 whole entry): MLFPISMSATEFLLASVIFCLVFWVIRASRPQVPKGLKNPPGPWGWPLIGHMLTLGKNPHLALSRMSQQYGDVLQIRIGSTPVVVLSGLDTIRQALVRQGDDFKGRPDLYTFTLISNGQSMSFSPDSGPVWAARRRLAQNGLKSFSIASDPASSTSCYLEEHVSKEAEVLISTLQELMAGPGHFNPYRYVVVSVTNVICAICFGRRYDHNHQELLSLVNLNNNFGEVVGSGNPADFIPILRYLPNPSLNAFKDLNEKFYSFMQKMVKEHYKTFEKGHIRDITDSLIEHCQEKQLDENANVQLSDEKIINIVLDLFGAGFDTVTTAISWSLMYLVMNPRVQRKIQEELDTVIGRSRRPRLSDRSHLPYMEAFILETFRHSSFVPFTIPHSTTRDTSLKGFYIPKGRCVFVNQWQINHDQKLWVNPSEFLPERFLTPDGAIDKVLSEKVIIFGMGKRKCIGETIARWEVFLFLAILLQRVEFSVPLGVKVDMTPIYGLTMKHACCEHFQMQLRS
T3 sequence (P05177 whole entry): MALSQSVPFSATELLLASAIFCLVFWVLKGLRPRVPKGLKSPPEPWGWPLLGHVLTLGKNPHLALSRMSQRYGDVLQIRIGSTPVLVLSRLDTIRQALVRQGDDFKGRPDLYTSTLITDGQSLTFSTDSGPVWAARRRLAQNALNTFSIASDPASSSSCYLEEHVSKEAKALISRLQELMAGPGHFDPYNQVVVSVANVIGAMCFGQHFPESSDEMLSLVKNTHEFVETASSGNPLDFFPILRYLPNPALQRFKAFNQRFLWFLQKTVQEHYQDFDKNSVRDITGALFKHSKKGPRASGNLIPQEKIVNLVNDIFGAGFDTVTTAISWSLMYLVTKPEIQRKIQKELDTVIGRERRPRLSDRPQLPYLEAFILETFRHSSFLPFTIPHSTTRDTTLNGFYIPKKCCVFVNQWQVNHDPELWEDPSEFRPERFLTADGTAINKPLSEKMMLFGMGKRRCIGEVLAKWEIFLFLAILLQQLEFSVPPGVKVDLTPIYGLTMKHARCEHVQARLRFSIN

[24] = Half life in mouse microsomes; assay type: ADME, Microsome
[25] = system: Salmonella typhimurium; assay: Mutagenic activity in Salmonella typhimurium TA98 at 1667 ug/plate in presence of liver S9 fraction; assay type: toxicity, organism-based; details: salmonella enterica subsp. enterica serovar typhimurium
[26] = system: Salmonella typhimurium; assay: Mutagenic activity in Salmonella typhimurium TA100 at 1667 ug/plate in presence of liver S9 fraction; assay type: toxicity, organism-based; details: salmonella enterica subsp. enterica serovar typhimurium
[27] = Thermodynamic solubility of the compound; assay type: physicochemical; details: read-out: Therm_solubility
[28] = Oral bioavailability in rat at 5 mg/kg; assay type: ADME, organism-based; details: in vivo
[29] = target: Cytochrome P450 2D6 (Homo sapiens, UniProt P10635); assay: Inhibition of CYP2D6 up to 25 uM; assay type: ADME
[30] = Clearance in rat at 0.2 mg/kg, iv and 10 mg/kg, po; assay type: ADME, organism-based; details: in vivo
[31] = Oral bioavailability in rat at 10 mg/kg; assay type: ADME, organism-based; details: in vivo

| SMILES | Ratio IC50 [1] | IC50 [2] [nM] | Ratio IC50 [3] | IC50 [4] [nM] | Ratio IC50 [5] | IC50 [6] [nM] | IC50 [7] [nM] | IC50 [9] [nM] | half-life [14] [min] | half-life [19] [min] | half-life [24] [min] | further results |
| --- | --- | --- | --- | --- | --- | --- | --- | --- | --- | --- | --- | --- |
| CC(=O)Nc1nc2ccc(-c3cc(C)c(O)c(C)c3)cn2n1 | 5 | 12600 | 10 | 6310 | 6.3 | 20000 | 2000 |  |  |  |  |  |
| COc1ccccc1-c1ccc2nc(NC(C)=O)nn2c1 | 5 | > 100000 | > 30 | 31600 | > 30 | > 100000 | 3980 |  |  |  |  |  |
| Nc1nc2ccc(-c3cncc(NS(=O)(=O)c4ccc(Cl)cc4)c3)cn2n1 |  | 158 |  | 398 |  |  | 6.31 | 2000 |  |  |  | fraction unbound [8]: < 0.01 |
| CC(=O)Nc1nc2ccc(-c3cccnc3)cn2n1 | > 60 | 15800 |  | > 31600 | > 60 |  | 251 |  |  |  |  |  |
| CC(C)(C)NS(=O)(=O)c1cncc(-c2ccc3nc(N)nn3c2)c1 |  |  |  |  |  |  |  | 2000 | > 45 | > 45 | > 45 | permeability [10]: permeable; inhibition (INH) [11]: Not Active; inhibition (INH) [12]: Not Active; inhibition (INH) [13]: Not Active; clearance [15]: 11.5 mL/min/kg; Activity [16]: Non-toxic; Activity [17]: Non-toxic; Activity [18]: Non-toxic; Activity [20]: Non-toxic; inhibition (INH) [21]: Not Active; Activity [22]: 53%; inhibition (INH) [23]: Not Active; Activity [25]: Non-toxic; Activity [26]: Non-toxic; solubility thermodynamic [27]: 9 µg/mL (≈ 26 µM); bioavailability [28]: 88%; inhibition (INH) [29]: Not Active |
| CC(C)NS(=O)(=O)c1cncc(-c2ccc3nc(N)nn3c2)c1 |  | 2510 |  | 1580 |  |  | 31.6 | 1580 | > 45 | > 45 | > 45 |  |
| CC(C)(C)NS(=O)(=O)c1cncc(-c2cc(F)c3nc(N)nn3c2)c1 | 100 | > 10000 | 100 |  |  | 1260 |  |  |  |  |  | permeability [10]: permeable; inhibition (INH) [11]: Not Active; inhibition (INH) [12]: Not Active; inhibition (INH) [13]: Not Active; Activity [16]: Non-toxic; Activity [17]: Non-toxic; Activity [18]: Non-toxic; clearance [30]: 14 mL/min/kg; Activity [20]: Non-toxic; inhibition (INH) [21]: Not Active; Activity [22]: 38%; inhibition (INH) [23]: Not Active; Activity [25]: Non-toxic; Activity [26]: Non-toxic; solubility thermodynamic [27]: < 5 µg/mL; bioavailability [31]: 37%; inhibition (INH) [29]: Not Active |
| CC(=O)Nc1nc2ccc(-c3cncc(S(C)(=O)=O)c3)cn2n1 |  |  |  |  |  |  |  |  | > 45 | > 45 | > 45 |  |
